Assay results: ChEMBL document CHEMBL1201862, “PubChem BioAssay data set” (2004)
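Dose response: 5 concentrations. Exposure: 48 h. Format: 96-well plates. Endpoint: linear interpolation; highest concentration if not reached. GI50 marks 50% less growth.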 The source made the active and inactive calls. No stated cut-off is given here; in the data, active = GI50 up to about 1.1 µM and inactive = higher.

Legend:
Test in all cases: inhibition of tumour cell growth, NCI panel, 48 h
RPMI-8226 = system: RPMI-8226
SK-MEL-5 = system: SK-MEL-5
T47D = system: T47D
U-251 = system: U-251
UACC-257 = system: UACC-257
SNB-75 = system: SNB-75
SNB-19 = system: SNB-19
Malme-3M = system: Malme-3M
SF-295 = system: SF-295
SK-MEL-28 = system: SK-MEL-28
UO-31 = system: UO-31
PC-3 = system: PC-3
SW-620 = system: SW-620
A498 = system: A498
HCT-15 = system: HCT-15
COLO 205 = system: COLO 205
HT-29 = system: HT-29
KM12 = system: KM12
BT-549 = system: BT-549

| Structure (SMILES) | GI50 (RPMI-8226) | GI50 (SK-MEL-5) | GI50 (T47D) | GI50 (U-251) | GI50 (UACC-257) | GI50 (SNB-75) | GI50 (SNB-19) | GI50 (Malme-3M) | GI50 (SF-295) | GI50 (SK-MEL-28) | GI50 (UO-31) | GI50 (PC-3) | GI50 (SW-620) | GI50 (A498) | GI50 (HCT-15) [µM] | GI50 (COLO 205) | GI50 (HT-29) | GI50 (KM12) | GI50 (BT-549) |
| --- | --- | --- | --- | --- | --- | --- | --- | --- | --- | --- | --- | --- | --- | --- | --- | --- | --- | --- | --- |
| O=C1/C(=C/c2ccccc2)N=C2Sc3c([nH]cnc3=O)N12 | > 100 µM (inactive) | > 100 µM (inactive) | > 100 µM (inactive) | > 100 µM (inactive) | > 100 µM (inactive) | > 100 µM (inactive) | > 100 µM (inactive) | > 100 µM (inactive) | > 100 µM (inactive) | > 100 µM (inactive) | > 100 µM (inactive) | > 100 µM (inactive) | > 100 µM (inactive) | > 100 µM (inactive) | 68.9 | > 100 µM (inactive) | > 100 µM (inactive) | > 100 µM (inactive) |  |
| O=C(CSCC(=O)N/N=C/c1cc(I)cc(I)c1O)N/N=C/c1cc(I)cc(I)c1O | 26.5 µM (inactive) | 10.6 µM (inactive) | 34.3 µM (inactive) | 6.61 µM (inactive) | 22.4 µM (inactive) | 5.65 µM (inactive) | 10.5 µM (inactive) | 18.1 µM (inactive) | 13.6 µM (inactive) | 18.9 µM (inactive) | 13.2 µM (inactive) | 32.3 µM (inactive) | 13.6 µM (inactive) | 9.04 µM (inactive) | 17.9 | 23.1 µM (inactive) | 32.9 µM (inactive) | 25.8 µM (inactive) |  |
| COC(=O)c1ccc(Cc2cc(Cc3ccc(C(=O)OC)cc3)cc(Cc3ccc(C(=O)OC)cc3)c2)cc1 | > 25 µM (inactive) |  |  | > 25 µM (inactive) | > 25 µM (inactive) | > 25 µM (inactive) | > 25 µM (inactive) | > 25 µM (inactive) | > 25 µM (inactive) | > 25 µM (inactive) | > 25 µM (inactive) | > 25 µM (inactive) | > 25 µM (inactive) | > 25 µM (inactive) | > 25 |  | > 25 µM (inactive) | > 25 µM (inactive) | > 25 µM (inactive) |
| N#Cc1[nH]c(=S)[nH]c1N |  | > 100 µM (inactive) |  | > 100 µM (inactive) | > 100 µM (inactive) | > 100 µM (inactive) | > 100 µM (inactive) | > 100 µM (inactive) | > 100 µM (inactive) | > 100 µM (inactive) | > 100 µM (inactive) | > 100 µM (inactive) | > 100 µM (inactive) | > 100 µM (inactive) | > 100 | > 100 µM (inactive) | > 100 µM (inactive) |  | > 100 µM (inactive) |
| COc1ccc(-c2c(C#N)c(S)n(NS(=O)(=O)c3ccc(C)cc3)c(=O)c2C#N)cc1 | 3.42 µM (inactive) | 13.8 µM (inactive) |  | 29.4 µM (inactive) | 32 µM (inactive) | 30.5 µM (inactive) | 35.8 µM (inactive) | 24.6 µM (inactive) | 30 µM (inactive) | 24.2 µM (inactive) |  | 18.2 µM (inactive) | 18.6 µM (inactive) | 30.5 µM (inactive) | 16 | 18.2 µM (inactive) | 31.6 µM (inactive) | 15.3 µM (inactive) | 13.4 µM (inactive) |
| O=C(CC(C(=O)c1ccsc1)c1ccc2c(c1)OCO2)c1ccccc1 (stereo not drawn) | > 100 µM (inactive) | 95.9 µM (inactive) | 51.6 µM (inactive) | > 100 µM (inactive) | > 100 µM (inactive) | > 100 µM (inactive) |  |  | > 100 µM (inactive) | > 100 µM (inactive) | > 100 µM (inactive) |  | > 100 µM (inactive) | > 100 µM (inactive) | > 100 | > 100 µM (inactive) | > 100 µM (inactive) | > 100 µM (inactive) |  |
| O=CNNC(=O)Nc1ccc(Cl)cc1 | > 100 µM (inactive) | > 100 µM (inactive) | > 100 µM (inactive) | > 100 µM (inactive) | > 100 µM (inactive) | > 100 µM (inactive) | 95.7 µM (inactive) | > 100 µM (inactive) | 33.7 µM (inactive) | > 100 µM (inactive) | 68.7 µM (inactive) |  | > 100 µM (inactive) | 29.6 µM (inactive) | > 100 | > 100 µM (inactive) | > 100 µM (inactive) | > 100 µM (inactive) |  |
| NS(=O)(=O)c1cc2c(cc1Cl)NC(C(=O)NNC(=O)c1ccncc1)=NS2(=O)=O |  | > 100 µM (inactive) |  |  | > 100 µM (inactive) | > 100 µM (inactive) | > 100 µM (inactive) | > 100 µM (inactive) | > 100 µM (inactive) | > 100 µM (inactive) | > 100 µM (inactive) |  | > 100 µM (inactive) |  | > 100 | > 100 µM (inactive) | > 100 µM (inactive) | > 100 µM (inactive) |  |
| CCCCCCCCCCCCCCCCCC(=O)OCC(COC(=O)CCCN)OC(=O)CCCN (stereo not drawn) |  |  | 17.4 µM (inactive) | 20.6 µM (inactive) | 19.6 µM (inactive) | > 100 µM (inactive) | 21.8 µM (inactive) | 23.2 µM (inactive) | 19.4 µM (inactive) | 19.9 µM (inactive) | 1.96 µM (inactive) | 17.1 µM (inactive) | 19.6 µM (inactive) |  | 23.7 | 16.5 µM (inactive) | 16.1 µM (inactive) | 15.5 µM (inactive) |  |
| c1ccc(C2CC(N3CCOCC3)=Nc3ccccc3N2)cc1 (stereo not drawn) | 43.9 µM (inactive) | > 100 µM (inactive) |  | > 100 µM (inactive) | > 100 µM (inactive) |  | > 100 µM (inactive) | 80.9 µM (inactive) | > 100 µM (inactive) | > 100 µM (inactive) | > 100 µM (inactive) | > 100 µM (inactive) | > 100 µM (inactive) | > 100 µM (inactive) | > 100 | > 100 µM (inactive) | > 100 µM (inactive) | > 100 µM (inactive) | > 100 µM (inactive) |
| C=CC1(O)CCCC=C1COCc1ccccc1 (stereo not drawn) | 23.8 µM (inactive) | 52.6 µM (inactive) | 64 µM (inactive) | > 100 µM (inactive) | > 100 µM (inactive) | 61.4 µM (inactive) | > 100 µM (inactive) | > 100 µM (inactive) | > 100 µM (inactive) | 71 µM (inactive) | 45.1 µM (inactive) | 67.8 µM (inactive) |  | > 100 µM (inactive) | 65.8 | > 100 µM (inactive) | 93.5 µM (inactive) | 50.2 µM (inactive) |  |
| CN(C)c1n/c(=N/Cc2cccs2)ss1 | > 3.04 µM (inactive) | > 10 µM (inactive) | > 10 µM (inactive) | > 10 µM (inactive) | > 10 µM (inactive) | > 10 µM (inactive) | > 10 µM (inactive) | > 10 µM (inactive) | > 10 µM (inactive) | > 10 µM (inactive) | > 10 µM (inactive) | > 10 µM (inactive) | > 10 µM (inactive) | > 10 µM (inactive) | > 10 | > 10 µM (inactive) | > 10 µM (inactive) | > 10 µM (inactive) |  |
| Cc1cc(=O)oc2cc(OCCCOc3ccc4c(C)cc(=O)oc4c3)ccc12 | > 100 µM (inactive) | > 100 µM (inactive) |  | > 100 µM (inactive) | > 100 µM (inactive) | 38.6 µM (inactive) | 57.9 µM (inactive) | > 100 µM (inactive) | > 100 µM (inactive) | > 100 µM (inactive) | > 100 µM (inactive) |  | > 100 µM (inactive) | > 100 µM (inactive) | > 100 | > 100 µM (inactive) | > 100 µM (inactive) |  |  |
| Cn1nc(-c2ccccc2)c(C(=O)/C=C/c2ccc(F)cc2)c(N2CCCCC2)c1=O | 2.48 µM (inactive) | 5.73 µM (inactive) |  | 5.74 µM (inactive) |  |  | 13.2 µM (inactive) |  |  | 3.79 µM (inactive) | 5.58 µM (inactive) |  | 5.06 µM (inactive) |  | 5.06 | 4.12 µM (inactive) | 5.32 µM (inactive) |  |  |
| O=C(CCn1[nH]c(=O)c(Cl)c(Cl)c1=O)NNC(=O)C[n+]1ccccc1 | > 100 µM (inactive) | > 100 µM (inactive) |  |  | > 10 µM (inactive) | 52.4 µM (inactive) | > 100 µM (inactive) | > 100 µM (inactive) | > 100 µM (inactive) | > 100 µM (inactive) | > 100 µM (inactive) |  | > 100 µM (inactive) | > 100 µM (inactive) | > 100 | > 100 µM (inactive) | > 100 µM (inactive) | > 100 µM (inactive) |  |
| O=C(O)CN(c1ccccc1)S(=O)(=O)c1ccc(NC(=O)c2ccccc2)cc1 | > 100 µM (inactive) |  |  | > 100 µM (inactive) | > 100 µM (inactive) | > 100 µM (inactive) | > 100 µM (inactive) | > 100 µM (inactive) |  | > 100 µM (inactive) | > 100 µM (inactive) |  | > 100 µM (inactive) | > 100 µM (inactive) | > 100 | > 100 µM (inactive) | > 10 µM (inactive) |  |  |
| Cc1cc(S(=O)(=O)Nc2nc3cscc3c(=O)n2N)c(S)cc1Cl | 96.6 µM (inactive) | 41 µM (inactive) |  | 37.3 µM (inactive) | > 100 µM (inactive) | 15 µM (inactive) | 35.9 µM (inactive) | 39.4 µM (inactive) | 37.9 µM (inactive) | 73.3 µM (inactive) |  | 48.8 µM (inactive) | 54.7 µM (inactive) |  | 35.2 | > 100 µM (inactive) | 39.6 µM (inactive) | 39.5 µM (inactive) | 55.1 µM (inactive) |
| CN(C)c1cccc2c(S(=O)(=O)NCCN)cccc12 [DANSYL ETHYLENEDIAMINE] |  | 46.2 µM (inactive) | > 100 µM (inactive) | > 100 µM (inactive) | > 100 µM (inactive) | 4.74 µM (inactive) | > 100 µM (inactive) | > 100 µM (inactive) | > 100 µM (inactive) | > 100 µM (inactive) | 98.9 µM (inactive) | > 100 µM (inactive) | > 100 µM (inactive) | 23 µM (inactive) | > 100 | > 100 µM (inactive) | > 100 µM (inactive) | > 100 µM (inactive) |  |
